Results on 18 compounds are retold here after ChEMBL document CHEMBL4308868 (Bioorg Med Chem Lett, 2019).

Structures are written as SMILES.

For the experiment, the target named is T1, Tyrosinase (Agaricus bisporus, UniProt O42713).
T1 sequence (O42713 whole entry): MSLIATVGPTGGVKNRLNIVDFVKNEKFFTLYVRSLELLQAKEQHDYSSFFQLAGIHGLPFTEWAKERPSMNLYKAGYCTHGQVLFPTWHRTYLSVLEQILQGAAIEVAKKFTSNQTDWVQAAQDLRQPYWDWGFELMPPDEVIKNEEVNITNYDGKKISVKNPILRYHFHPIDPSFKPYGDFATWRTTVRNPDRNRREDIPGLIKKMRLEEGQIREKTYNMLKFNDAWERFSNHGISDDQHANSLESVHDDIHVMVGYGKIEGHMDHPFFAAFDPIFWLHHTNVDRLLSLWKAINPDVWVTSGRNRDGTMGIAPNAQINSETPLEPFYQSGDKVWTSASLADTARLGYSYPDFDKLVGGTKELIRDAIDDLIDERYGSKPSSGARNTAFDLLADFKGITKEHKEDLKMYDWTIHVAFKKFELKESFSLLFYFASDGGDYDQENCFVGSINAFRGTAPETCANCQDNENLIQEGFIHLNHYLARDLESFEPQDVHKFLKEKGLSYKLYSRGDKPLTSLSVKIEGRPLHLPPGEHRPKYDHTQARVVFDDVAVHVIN
Description: Inhibition of mushroom tyrosinase using L-tyrosine as substrate measured after 20 mins by spectrophotometric method
Regarding `CCOc1cc(C(C)C)c(C(=O)CCC(=O)OCc2ccccc2)cc1C`, the IC50 was > 500 µM.

Turning to `CCOc1cc(C(C)C)ccc1C`, the IC50 was > 500 µM.

`C/C=C/COC(=O)CCC(=O)c1cc(C(C)C)c(OCC)cc1C` came in with an IC50 of 102 µM.

As for `CCOc1cc(C(C)C)c(C(=O)CCC(=O)OC)cc1C`, the IC50 was > 500 µM.

As to `CCOc1cc(C)ccc1C(C)C`, the 50% inhibitory concentration (IC50) is > 500 µM.

In the case of `CCCOC(=O)CCC(=O)c1cc(C)c(OCC)cc1C(C)C`, the midpoint of inhibition, the IC50, lay at 218 µM.

In the case of `CCCCOC(=O)CCC(=O)c1cc(C(C)C)c(OCC)cc1C`, the 50% inhibitory concentration (IC50) turned out to be 191 µM.

Consider `C=CCOC(=O)CCC(=O)c1cc(C(C)C)c(OCC)cc1C`, for which 126 µM corresponded to half-maximal inhibition (IC50).

Turning to `CCOc1cc(C)c(C(=O)CCC(=O)OCc2ccccc2)cc1C(C)C`, the half-maximal inhibitory concentration (IC50) was > 500 µM.

As to `CCOc1cc(C)c(C(=O)CCC(=O)OC)cc1C(C)C`, the IC50 is > 500 µM.

Regarding `CCCCOC(=O)CCC(=O)c1cc(C)c(OCC)cc1C(C)C`, the IC50 was 176 µM.

`CCCOC(=O)CCC(=O)c1cc(C(C)C)c(OCC)cc1C`: inhibition was half-maximal at 154 µM (IC50).

`CCOC(=O)CCC(=O)c1cc(C(C)C)c(OCC)cc1C`: inhibition was half-maximal at 212 µM (IC50).

`C/C=C/COC(=O)CCC(=O)c1cc(C)c(OCC)cc1C(C)C` returned an IC50 of 244 µM.

Turning to `CCOC(=O)CCC(=O)c1cc(C)c(OCC)cc1C(C)C`, the IC50 is > 500 µM.

In the case of `CCOc1cc(C)c(C(=O)CCC(=O)O)cc1C(C)C`, the concentration for half-maximal inhibition (IC50) was > 500 µM.

Take `CCOc1cc(C(C)C)c(C(=O)CCC(=O)O)cc1C`: the half-maximal inhibitory concentration (IC50) is > 500 µM.

Regarding `Cc1ccc(C(C)C)cc1O` [CARVACROL], the IC50 was > 500 µM.

For orientation: IC50 means the concentration needed to halve the response being measured. A lower IC50 goes with higher potency.
